As a reminder, the remaining activity is the share of the control activity or signal that is left under treatment.

SMILES strings stand for the structures. Peptide text beside a SMILES is read from it.

For this assay, the target named is T1, recombinant AtCathB3 (Arabidopsis cathepsin B3) (Arabidopsis thaliana, UniProt Q94K85).
T1 construct: gene CATHB3; 25-residue signal peptide removed; N-terminal cherrytag (11 kDa), C-terminal 6xHis; secreted from baculovirus-infected insect cells (Sf9/Hi-5); N-glycosylated
T1 sequence (Q94K85 26-359): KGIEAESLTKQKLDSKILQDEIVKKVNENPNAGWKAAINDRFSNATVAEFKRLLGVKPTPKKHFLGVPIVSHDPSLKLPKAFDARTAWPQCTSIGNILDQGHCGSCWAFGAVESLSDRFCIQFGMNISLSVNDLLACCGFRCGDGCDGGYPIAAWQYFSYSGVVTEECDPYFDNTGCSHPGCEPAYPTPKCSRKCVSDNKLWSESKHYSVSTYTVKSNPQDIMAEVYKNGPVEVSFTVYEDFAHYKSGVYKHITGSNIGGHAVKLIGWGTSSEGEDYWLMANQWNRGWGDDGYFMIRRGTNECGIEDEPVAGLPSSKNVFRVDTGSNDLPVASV
Description: fluorogenic DEVDase assay, inhibitor pre-incubated […] min. Format: biochemical.

Turning to `CC(=O)N[C@@H](Cc1ccc(O)cc1)C(=O)N[C@H](C(=O)N[C@@H](C)C(=O)N[C@H](C=O)CC(=O)O)C(C)C` [YVAD-CHO, Ac-YVAD-CHO], the remaining activity at 100 µM stood at 43.3 ± 0.6%. Turning to `CC(C)[C@H](NC(=O)[C@H](CCC(=O)O)NC(=O)[C@H](CC(=O)O)NC(=O)OCc1ccccc1)C(=O)N[C@H](C=O)CC(=O)O` [DEVD-CHO, Z-DEVD-CHO], the remaining activity at 100 µM worked out at 0.3%.

Turning to `CC(=O)N[C@@H](CC(C)C)C(=O)N[C@H](C(=O)N[C@H](C=O)CCCCN)C(C)C` [LVK-CHO, Ac-LVK-CHO] (Ac-Leu-Val-Lys-aldehyde), the remaining activity at 100 µM was found to be 0%. As for `CCCNC(=O)[C@H]1O[C@@H]1C(=O)N[C@H](C(=O)N1CCC[C@H]1C(=O)O)[C@@H](C)CC` [CA-074], the remaining activity at 1000 µM stood at 0%.

The values are drawn from PMC5072426, “Inhibition of cathepsin B by caspase-3 inhibitors blocks programmed cell death in Arabidopsis” (Cell Death and Differentiation, 2016).
